Earlier results as cited in patent publication US20070003628A1, “Nanoparticulate clopidogrel formulations” (Elan Pharma International Limited, priority 2005, published 2007).
Structures can show the parent of a compound that is named as a salt. Where two headings read alike, the source gives them in different places.

Assays:
[1] = not given; remark: listed apart in the source

SMILES: COC(=O)[C@H](c1ccccc1Cl)N1CCc2sccc2C1 [Clopidogrel bisulfate, methyl (+)-(S)-α-(2-chorophenyl)-6,7-dihydrothieno[3,2-c]pyridine-5(4H)-acetate sulfate (1:1)]
- solubility in ethyl ether (ethyl ether): practically insoluble
- solubility in methanol (methanol): dissolves freely
- solubility in methylene chloride (methylene chloride): dissolves sparingly
- solubility in water (pH 1.0): freely soluble
- solubility in water (water at neutral pH): practically insoluble
- rate of a combined end point of cardiovascular death, MI, or stroke, and of cardiovascular death, MI, stroke, or refractory ischemia ([1]; patients with acute coronary syndrome): decrease the rate
- rate of a combined end point of new ischemic stroke, new MI, and other vascular death ([1]; recent myocardial infarction, recent stroke or established arterial disease): reduce the rate

SMILES: COC(=O)[C@H](c1ccccc1Cl)N1CCc2sccc2C1 [clopidogrel]
- solubility in water (water, pH not stated): practically insoluble
